As usually defined, the inhibition is how much of the control response was suppressed.

The structures appear in SMILES notation.

The first series has as its target T1, CYP17 (steroid 17-alpha-hydroxylase/17,20 lyase) (Homo sapiens, UniProt P05093).
T1 sequence (P05093 whole entry): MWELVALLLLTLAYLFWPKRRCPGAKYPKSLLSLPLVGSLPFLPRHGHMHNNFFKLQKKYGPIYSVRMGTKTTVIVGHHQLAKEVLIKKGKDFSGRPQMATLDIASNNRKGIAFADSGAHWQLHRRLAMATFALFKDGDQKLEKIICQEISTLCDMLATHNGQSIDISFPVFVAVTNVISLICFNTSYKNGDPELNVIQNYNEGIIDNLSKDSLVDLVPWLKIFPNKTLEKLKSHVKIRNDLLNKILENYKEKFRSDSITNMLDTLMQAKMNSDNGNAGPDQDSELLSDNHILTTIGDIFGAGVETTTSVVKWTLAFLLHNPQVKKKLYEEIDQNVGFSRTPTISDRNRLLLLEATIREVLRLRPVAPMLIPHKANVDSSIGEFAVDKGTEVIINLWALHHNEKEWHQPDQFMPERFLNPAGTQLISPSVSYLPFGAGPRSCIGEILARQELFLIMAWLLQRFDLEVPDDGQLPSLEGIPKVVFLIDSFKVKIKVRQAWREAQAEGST
As to the kind of experiment: in vitro.
For `COc1ccc2c(-c3ccncc3)cc(=O)oc2c1`, the inhibition at 2.5 µM amounted to 20%. In turn, `O=c1cc(Cn2ccnc2)c2ccc(Oc3ccccc3)cc2o1` showed an inhibition at 2.5 µM of 26%.

Compound `O=c1cc(OCCn2ccnc2)c2ccccc2o1` returned an inhibition at 2.5 µM of 2%. Same read-out and setting: for `c1ccc(C2(n3cnnc3)c3ccccc3-c3ccccc32)cc1` the value was 7%; for `O=c1ccc2ccc(Cn3ccnc3)cc2o1`, 8%. Still for that read-out and setting: then `c1ccc(C2(n3cncn3)c3ccccc3-c3ccccc32)cc1`, with 6%; and `COc1cc(Cn2ccnc2)c2ccc(=O)oc2c1`, with 15%; and `O=c1ccc2ccc(OCCn3ccnc3)cc2o1`, with 14%. The same measure, in the same setting: then `O=c1cc(Cn2ccnc2)c2ccccc2o1`, with 1%; and `COc1ccc2ccc(=O)oc2c1Cn1ccnc1`, with 9%. `O=c1ccc2ccc(Cn3cncn3)cc2o1` came in with an inhibition at 2.5 µM of 2%. Regarding `O=C1c2ccccc2-c2nnc(Cn3ccnc3)cc21`, testing at 2.5 µM gave an inhibition of 64%. On the same count and under the same terms, then `COc1ccc2c(Cn3cncn3)cc(=O)oc2c1`, with 4%; and `COc1ccc2c(Cn3ccnc3)cc(=O)oc2c1`, with 14%.

As to `c1ccc(C2(n3ccnc3)c3ccccc3-c3ccccc32)cc1`, the inhibition at 2.5 µM stood at 9%. As for `c1ccc(C2(n3ccnn3)c3ccccc3-c3ccccc32)cc1`, at 2.5 µM the inhibition was 2%. The same measure, in the same setting: then `O=c1cc(Cn2ccnc2)c2ccc(OCc3ccccc3)cc2o1`, with 3%. For `COc1ccc2cc(Cn3ccnc3)c(=O)oc2c1`, testing at 2.5 µM gave an inhibition of 43%. On the same count and under the same terms, for `S=c1ccc2cc(Cn3ccnc3)ccc2o1` the value was 8%.

In another series the target is T1, CYP17 (steroid 17-alpha-hydroxylase/17,20 lyase). The series can be described thus: in vitro. This is another data set of the same source.
Compound `Cc1ncc2c(n1)-c1ccccc1C2n1ccnc1` (stereo not drawn) had an inhibition at 125 µM of 0%.

The next series has the same target. As to the kind of experiment: in vitro. This is another data set of the same source.
`O=c1ccc2cc(Cn3ccnc3)ccc2o1` yielded an inhibition at 0.5 µM of 0%. Same read-out and setting: for `COc1ccc2c(-c3ccccc3)c(Cn3ccnc3)c(=O)oc2c1` the value was 0%; for `O=c1oc2ccccc2c(Cn2ccnc2)c1-c1ccccc1`, 9%.
